Test results: USRE47302E1 (ONYX THERAPEUTICS INC., priority 2013, dated 2019)
≈ marks a conversion by molar mass, not a printed value.

Assays:
[1] = target: T1, proteasome subunit β5 (beta5) (Homo sapiens, UniProt P28074); experiment: Proteasome active-site ELISA (ProCISE), beta5, MOLT-4 lysate; assay type: biochemical; conditions: MOLT4 lysate, human, 1 h continuous treatment, 25° C.
T1 construct: Lysate from the human acute lymphoblastic leukemia cell line, MOLT-4; endogenous in cells; host or cells: MOLT-4
Protocol: (§1) Test compounds were serially diluted in DMSO at 100× concentration, then diluted to 10× in aqueous hypotonic lysis buffer. Lysate from the human acute lymphoblastic leukemia cell line, MOLT-4, was treated for 1 hour at 25° C. with compound at a final 1× concentration. […] Following, lysate was denatured in guanidine hydrochloride, and subunits bound to probe were isolated with streptavidin-conjugated sepharose beads. Individual subunits (e.g., β5, LMP7, LMP2, MECL-1) were probed with subunit-specific primary antibodies, followed by HRP-conjugated secondary antibodies. A chemiluminescent substrate was used to generate signal associated with HRP binding, which was detected on a plate reader. Luminescent signal was normalized to protein content, then, percent activity calculated relative to DMSO-treated controls to generate IC50 curves.

[2] = Solubility pH 7; conditions: pH 7, aqueous buffer
[3] = target: T2, immunoproteasome subunit LMP7 (Homo sapiens, UniProt P28062); experiment: Proteasome active-site ELISA (ProCISE), LMP7, MOLT-4 lysate; assay type: biochemical; conditions: MOLT4 lysate, 1 h continuous treatment, 25° C.
T2 construct: Lysate from the human acute lymphoblastic leukemia cell line, MOLT-4; endogenous in cells; host or cells: MOLT-4
Protocol: as §1

Row | SMILES | IC50 [1] [µM] | solubility [2] [µg/mL] | IC50 [3] [µM]
1 | COc1ccc(C[C@H](NC(=O)[C@H](C)NC(=O)CN2CCOCC2)C(=O)N[C@@H](CC2=CCCCC2)C(=O)[C@@]2(C)CO2)cc1 [Compound C-1019, (S)-N-((S)-3-(cyclohex-1-en-1-yl)-1-((R)-2-methyloxiran-2-yl)-1-oxopropan-2-yl)-3-(4-methoxyphenyl)-2-((S)-2-(2-morpholinoacetamido)propanamido)propanamide] | 9.33 | 1760 (≈ 3010 µM) | 
2 | COc1ccc(C[C@H](NC(=O)[C@@H](C)NC(=O)[C@H]2CC[C@H](O)CC2)C(=O)N[C@@H](CC2CCCC2)C(=O)[C@@]2(C)CO2)cc1 [Compound C-1064, (1r,4R)-N-((R)-1-(((S)-1-(((S)-3-cyclopentyl-1-((R)-2-methyloxiran-2-yl)-1-oxopropan-2-yl)amino)-3-(4-methoxyphenyl)-1-oxopropan-2-yl)amino)-1-oxopropan-2-yl)-4-hydroxycyclohexanecarboxamide] | 4.05 |  | 0.0605
3 | COc1ccc(C[C@H](NC(=O)[C@H](C)NC(=O)CN2CCC(C)(O)CC2)C(=O)N[C@@H](CC2=CCCC2)C(=O)[C@@]2(C)CO2)cc1 [Compound C-1121, (S)-N-((S)-3-(cyclopent-1-en-1-yl)-1-((R)-2-methyloxiran-2-yl)-1-oxopropan-2-yl)-2-((S)-2-(2-(4-hydroxy-4-methylpiperidin-1-yl)acetamido)propanamido)-3-(4-methoxyphenyl)propanamide] |  | 287 (≈ 479 µM) | 
4 | COc1ccc(C[C@H](NC(=O)[C@H](C)NC(=O)CN2CCOCC2)C(=O)N[C@@H](CC2=CC(C)CC2)C(=O)[C@@]2(C)CO2)cc1 (stereo partly drawn) [Compound C-1122, (2S)-3-(4-methoxyphenyl)-N-((2S)-3-(3-methylcyclopent-1-en-1-yl)-1-((R)-2-methyloxiran-2-yl)-1-oxopropan-2-yl)-2-((S)-2-(2-morpholinoacetamido)propanamido)propanamide] |  | 1830 (≈ 3120 µM) | 
5 | C[C@H](NC(=O)CN1CCOCC1)C(=O)N[C@@H](Cc1ccc2[nH]ccc2c1)C(=O)N[C@@H](CC1CCCC1)C(=O)[C@@]1(C)CO1 [Compound C-1123, (S)-N-((S)-3-cyclopentyl-1-((R)-2-methyloxiran-2-yl)-1-oxopropan-2-yl)-3-(1H-indol-5-yl)-2-((S)-2-(2-morpholinoacetamido)propanamido)propanamide] |  | 1470 (≈ 2520 µM) | 
6 | C[C@H](NC(=O)CN1CCOCC1)C(=O)N[C@@H](Cc1ccc2cc[nH]c2c1)C(=O)N[C@@H](CC1CCCC1)C(=O)[C@@]1(C)CO1 [Compound C-1124, (S)-N-((S)-3-cyclopentyl-1-((R)-2-methyloxiran-2-yl)-1-oxopropan-2-yl)-3-(1H-indol-6-yl)-2-((S)-2-(2-morpholinoacetamido)propanamido)propanamide] |  | 56.5 (≈ 97.1 µM) | 
7 | C[C@H](NC(=O)CN1CCOCC1)C(=O)N[C@@H](Cc1ccc(S(C)(=O)=O)cc1)C(=O)N[C@@H](CC1=CCCCC1)C(=O)[C@@]1(C)CO1 [Compound C-1126, (S)-N-((S)-3-(cyclohex-1-en-1-yl)-1-((R)-2-methyloxiran-2-yl)-1-oxopropan-2-yl)-3-(4-(methylsulfonyl)phenyl)-2-((S)-2-(2-morpholinoacetamido)propanamido)propanamide] |  | 7280 (≈ 11500 µM) | 
8 | C[C@H](NC(=O)CN1CCOCC1)C(=O)N[C@@H](CCc1ccccc1)C(=O)N[C@@H](CC1=CCCC1)C(=O)[C@@]1(C)CO1 [Compound C-1128, (S)-N-((S)-3-(Cyclopent-1-en-1-yl)-1-((R)-2-methyloxiran-2-yl)-1-oxopropan-2-yl)-2-((S)-2-(2-morpholinoacetamido)propanamido)-4-phenylbutanamide] |  | 1370 (≈ 2470 µM) | 
9 | Cc1ccc(C[C@H](NC(=O)[C@H](C)NC(=O)CN2CCOCC2)C(=O)N[C@@H](CC2=CCCCC2)C(=O)[C@@]2(C)CO2)cc1O [Compound C-1130, (S)-N-((S)-3-(cyclohex-1-en-1-yl)-1-((R)-2-methyloxiran-2-yl)-1-oxopropan-2-yl)-3-(3-hydroxy-4-methylphenyl)-2-((S)-2-(2-morpholinoacetamido)propanamido)propanamide] |  | 1140 (≈ 1950 µM) | 
10 | Cc1cc(C[C@H](NC(=O)[C@H](C)NC(=O)CN2CCOCC2)C(=O)N[C@@H](CC2=CCCC2)C(=O)[C@@]2(C)CO2)ccc1O [Compound C-1131, (S)-N-((S)-3-(cyclopent-1-en-1-yl)-1-((R)-2-methyloxiran-2-yl)-1-oxopropan-2-yl)-3-(4-hydroxy-3-methylphenyl)-2-((S)-2-(2-morpholinoacetamido)propanamido)propanamide] |  | 1700 (≈ 2980 µM) | 
11 | COc1ccc(C[C@H](NC(=O)[C@@H](NC(=O)CN2CCOCC2)C(F)(F)F)C(=O)N[C@@H](CC2=CCCC2)C(=O)[C@@]2(C)CO2)cc1 [Compound C-1132, (R)-N-((S)-1-(((S)-3-(cyclopent-1-en-1-yl)-1-((R)-2-methyloxiran-2-yl)-1-oxopropan-2-yl)amino)-3-(4-methoxyphenyl)-1-oxopropan-2-yl)-3,3,3-trifluoro-2-(2-morpholinoacetamido)propanamide] |  | 159 (≈ 254 µM) | 
12 | C[C@H](NC(=O)CN1CCOCC1)C(=O)N[C@@H](Cc1ccn(C)c(=O)c1)C(=O)N[C@@H](CC1=CCCC1)C(=O)[C@@]1(C)CO1 [Compound C-1137, (S)-N-((S)-3-(cyclopent-1-en-1-yl)-1-((R)-2-methyloxiran-2-yl)-1-oxopropan-2-yl)-3-(1-methyl-2-oxo-1,2-dihydropyridin-4-yl)-2-((S)-2-(2-morpholinoacetamido)propanamido)propanamide] |  | > 10000 | 
13 | C#CC[C@H](NC(=O)CN1CCOCC1)C(=O)N[C@@H](Cc1ccc(OC)cc1)C(=O)N[C@@H](CC1=CCCC1)C(=O)[C@@]1(C)CO1 [Compound C-1139, (S)-N-((S)-1-(((S)-3-(Cyclopent-1-en-1-yl)-1-((R)-2-methyloxiran-2-yl)-1-oxopropan-2-yl)amino)-3-(4-methoxyphenyl)-1-oxopropan-2-yl)-2-(2-morpholinoacetamido)pent-4-ynamide] |  | 172 (≈ 289 µM) | 
14 | COc1ccc(C[C@H](NC(=O)[C@H](C)NC(=O)CN2CCOCC2)C(=O)N[C@@H](CC2=CCCC2)C(=O)[C@@]2(C)CO2)cn1 [Compound C-1140, (S)-N-((S)-3-(cyclopent-1-en-1-yl)-1-((R)-2-methyloxiran-2-yl)-1-oxopropan-2-yl)-3-(6-methoxypyridin-3-yl)-2-((S)-2-(2-morpholinoacetamido)propanamido)propanamide] |  | > 10000 | 
15 | COc1cc(C[C@H](NC(=O)[C@H](C)NC(=O)CN2CCOCC2)C(=O)N[C@@H](CC2=CCCC2)C(=O)[C@@]2(C)CO2)ccn1 [Compound C-1141, (S)-N-((S)-3-(Cyclopent-1-en-1-yl)-1-((R)-2-methyloxiran-2-yl)-1-oxopropan-2-yl)-3-(2-methoxypyridin-4-yl)-2-((S)-2-(2-morpholinoacetamido)propanamido)propanamide] |  | 9010 (≈ 15800 µM) | 
16 | COc1ccc(C[C@H](NC(=O)[C@H](C)NC(=O)CN2CCOCC2)C(=O)N[C@@H](C[C@H]2[C@@H]3CCC[C@@H]32)C(=O)[C@@]2(C)CO2)cc1 [Compound C-1142, (S)-N-((S)-3-((1R,5S,6r)-bicyclo[3.1.0]hexan-6-yl)-1-((R)-2-methyloxiran-2-yl)-1-oxopropan-2-yl)-3-(4-methoxyphenyl)-2-((S)-2-(2-morpholinoacetamido)propanamido)propanamide] |  | 2340 (≈ 4000 µM) | 
17 | COc1ccc(C[C@H](NC(=O)[C@H](C)NC(=O)CN2CCOCC2)C(=O)N[C@@H](Cc2ccc(C#N)cc2)C(=O)[C@@]2(C)CO2)cc1 [Compound C-1163] |  | 2460 (≈ 4060 µM) | 
18 | COc1ccc(C[C@H](NC(=O)[C@H](C)NC(=O)[C@@H]2CCCN2C)C(=O)N[C@@H](Cc2ccccc2)C(=O)[C@@]2(C)CO2)cc1 [Compound C-1165] |  | 2150 (≈ 3800 µM) | 
19 | COc1ccc(C[C@H](NC(=O)[C@H](C)NC(=O)C2COC2)C(=O)N[C@@H](Cc2ccccc2)C(=O)[C@@]2(C)CO2)cc1 [Compound C-1168] |  | 213 (≈ 396 µM) | 
20 | COc1ccc(C[C@H](NC(=O)[C@H](C)NC(=O)C2CN(C)C2)C(=O)N[C@@H](Cc2ccccc2)C(=O)[C@@]2(C)CO2)cc1 [Compound C-1172, N-((S)-1-(((S)-3-(4-methoxyphenyl)-1-(((S)-1-((R)-2-methyloxiran-2-yl)-1-oxo-3-phenylpropan-2-yl)amino)-1-oxopropan-2-yl)amino)-1-oxopropan-2-yl)-1-methylazetidine-3-carboxamide] |  | 1900 (≈ 3460 µM) | 
21 | COc1ccc(C[C@H](NC(=O)C(C)NC(=O)CN2CCOCC2)C(=O)N[C@H](C(=O)[C@@]2(C)CO2)c2ccccc2)cc1 (some centres unmarked) [Compound C-1176] |  | 1890 (≈ 3340 µM) | 
22 | C[C@H](NC(=O)CN1CCOCC1)C(=O)N[C@@H](CC1CC1)C(=O)N[C@@H](Cc1ccccc1)C(=O)[C@@]1(C)CO1 [Compound C-1224, (S)-3-cyclopropyl-N-((S)-1-((R)-2-methyloxiran-2-yl)-1-oxo-3-phenylpropan-2-yl)-2-((S)-2-(2-morpholinoacetamido)propanamido)propanamide] |  | 257 (≈ 500 µM) | 
23 | COc1ccc(C[C@H](NC(=O)[C@H](C)NC(=O)CN2CCOCC2)C(=O)N[C@@H](CC(F)(F)F)C(=O)[C@@]2(C)CO2)cc1 [Compound C-1226] |  | 3820 (≈ 6670 µM) | 
24 | CC#CC[C@H](NC(=O)[C@H](Cc1ccc(OC)cc1)NC(=O)[C@H](C)NC(=O)CN1CCOCC1)C(=O)[C@@]1(C)CO1 [Compound C-1228] |  | 682 (≈ 1260 µM) | 
